PubChem BioAssay AID1963858 (Molecular Pharmacology Branch, DTP, NCI, 2024)

Tested on: HOP-62 multicell spheroids with HUVEC/MSC, viability
Test: Anticancer human tumor HOP-62 cell line growth inhibition [KRAS2];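 also: viability read after a week of compound exposure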;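 as to viability, T/C: 100% = DMSO vehicle-treated spheroids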
Details: for IC50: curve of first compound; for viability, T/C: stronger effect = lower value
In short: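 KRAS-mutant tumor cells were grown as spheroids with HUVEC endothelial cells and human MSCs as stroma. Targeted agents were tested alone and with KRAS pathway inhibitors. Doses started at or near clinical Cmax, or 10 microM, descending half-log.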

[1] = second compound 0.1 µM, first compound 0.0316 µM
[2] = second compound 0.316 µM, first compound 0.0316 µM
[3] = second compound 1 µM, first compound 0.0316 µM
[4] = second compound 3.16 µM, first compound 0.0316 µM
[5] = second compound 10 µM, first compound 0.0316 µM
[6] = second compound 0.1 µM, first compound 0.1 µM
[7] = second compound 0.1 µM, first compound 0.316 µM
[8] = second compound 0.1 µM, first compound 1 µM
[9] = second compound 0.1 µM, first compound 3.16 µM
[10] = second compound 0.1 µM, first compound 10 µM
[11] = second compound 0.316 µM, first compound 0.1 µM
[12] = second compound 0.316 µM, first compound 0.316 µM
[13] = second compound 0.316 µM, first compound 1 µM
[14] = second compound 0.316 µM, first compound 3.16 µM
[15] = second compound 0.316 µM, first compound 10 µM
[16] = second compound 1 µM, first compound 0.1 µM
[17] = second compound 1 µM, first compound 0.316 µM
[18] = second compound 1 µM, first compound 1 µM
[19] = second compound 1 µM, first compound 3.16 µM
[20] = second compound 1 µM, first compound 10 µM
[21] = second compound 3.16 µM, first compound 0.1 µM
[22] = second compound 3.16 µM, first compound 0.316 µM
[23] = second compound 3.16 µM, first compound 1 µM
[24] = second compound 3.16 µM, first compound 3.16 µM
[25] = second compound 3.16 µM, first compound 10 µM
[26] = second compound 10 µM, first compound 0.1 µM
[27] = second compound 10 µM, first compound 0.316 µM
[28] = second compound 10 µM, first compound 1 µM
[29] = second compound 10 µM, first compound 3.16 µM
[30] = second compound 10 µM, first compound 10 µM

Question: For `CC(=O)Nc1cccc(-n2c(=O)n(C3CC3)c(=O)c3c(Nc4ccc(I)cc4F)n(C)c(=O)c(C)c32)c1` + CNCc1ccccc1-c1csc(C(C)Nc2nc(C)nc3cc(OC)c(OC)cc23)c1, which IC50 (second compound 0.1 µM) is on record?
Answer: 4.3 nM

Question: And the IC50 (second compound 0.316 µM)?
Answer: 2.84 nM

Question: And the IC50 (second compound 1 µM)?
Answer: 2.32 nM

Question: And the IC50 (second compound 3.16 µM)?
Answer: < 0.1 nM

Question: What about the IC50 (second compound 10 µM) of the same compound?
Answer: < 0.1 nM

Question: What about the viability, T/C (second compound 0.1 µM, first compound 0.0001 µM) of the same compound?
Answer: 104%

Question: What about the viability, T/C (second compound 0.1 µM, first compound 0.000316 µM) of the same compound?
Answer: 97.2%

Question: What about the viability, T/C (second compound 0.1 µM, first compound 0.001 µM) of the same compound?
Answer: 81.6%

Question: And the viability, T/C (second compound 0.1 µM, first compound 0.00316 µM)?
Answer: 60.1%

Question: And the viability, T/C (second compound 0.1 µM, first compound 0.01 µM)?
Answer: 28%

Question: What about the viability, T/C [1] of the same compound?
Answer: 27.4%

Question: What about the viability, T/C (second compound 0.316 µM, first compound 0.0001 µM) of the same compound?
Answer: 106%

Question: What about the viability, T/C (second compound 0.316 µM, first compound 0.000316 µM) of the same compound?
Answer: 97.4%

Question: And the viability, T/C (second compound 0.316 µM, first compound 0.001 µM)?
Answer: 77%

Question: What about the viability, T/C (second compound 0.316 µM, first compound 0.00316 µM) of the same compound?
Answer: 48%

Question: And the viability, T/C (second compound 0.316 µM, first compound 0.01 µM)?
Answer: 30.1%

Question: What about the viability, T/C [2] of the same compound?
Answer: 29.9%

Question: And the viability, T/C (second compound 1 µM, first compound 0.0001 µM)?
Answer: 91.2%

Question: And the viability, T/C (second compound 1 µM, first compound 0.000316 µM)?
Answer: 92.8%

Question: What about the viability, T/C (second compound 1 µM, first compound 0.001 µM) of the same compound?
Answer: 74.1%

Question: And the viability, T/C (second compound 1 µM, first compound 0.00316 µM)?
Answer: 41.4%

Question: And the viability, T/C (second compound 1 µM, first compound 0.01 µM)?
Answer: 26.8%

Question: What about the viability, T/C [3] of the same compound?
Answer: 25.7%

Question: What about the viability, T/C (second compound 3.16 µM, first compound 0.0001 µM) of the same compound?
Answer: 7.87%

Question: And the viability, T/C (second compound 3.16 µM, first compound 0.000316 µM)?
Answer: 0.24%

Question: What about the viability, T/C (second compound 3.16 µM, first compound 0.001 µM) of the same compound?
Answer: 3.22%

Question: What about the viability, T/C (second compound 3.16 µM, first compound 0.00316 µM) of the same compound?
Answer: 0.35%

Question: What about the viability, T/C (second compound 3.16 µM, first compound 0.01 µM) of the same compound?
Answer: 0.07%

Question: And the viability, T/C [4]?
Answer: 0.24%

Question: And the viability, T/C (second compound 10 µM, first compound 0.0001 µM)?
Answer: 0.13%

Question: What about the viability, T/C (second compound 10 µM, first compound 0.000316 µM) of the same compound?
Answer: 0.15%

Question: And the viability, T/C (second compound 10 µM, first compound 0.001 µM)?
Answer: 2.8%

Question: What about the viability, T/C (second compound 10 µM, first compound 0.00316 µM) of the same compound?
Answer: 0.12%

Question: And the viability, T/C (second compound 10 µM, first compound 0.01 µM)?
Answer: 2.27%

Question: And the viability, T/C [5]?
Answer: 0.31%

Question: Which IC50 (second compound 0.1 µM) does the source give for `COC(=O)c1ccc2c(C(=Nc3ccc(N(C)C(=O)CN4CCN(C)CC4)cc3)c3ccccc3)c(O)[nH]c2c1` + CNCc1ccccc1-c1csc(C(C)Nc2nc(C)nc3cc(OC)c(OC)cc23)c1 here?
Answer: 246 nM

Question: What about the IC50 (second compound 0.316 µM) of the same compound?
Answer: 49.3 nM

Question: What about the IC50 (second compound 1 µM) of the same compound?
Answer: < 31.6 nM

Question: And the IC50 (second compound 3.16 µM)?
Answer: < 31.6 nM

Question: And the IC50 (second compound 10 µM)?
Answer: < 31.6 nM

Question: What about the viability, T/C [1] of the same compound?
Answer: 68.1%

Question: And the viability, T/C [6]?
Answer: 64.7%

Question: What about the viability, T/C [7] of the same compound?
Answer: 40.1%

Question: What about the viability, T/C [8] of the same compound?
Answer: 34.6%

Question: And the viability, T/C [9]?
Answer: 29.5%

Question: And the viability, T/C [10]?
Answer: 5.99%

Question: What about the viability, T/C [2] of the same compound?
Answer: 48.3%

Question: And the viability, T/C [11]?
Answer: 54.6%

Question: What about the viability, T/C [12] of the same compound?
Answer: 35.6%

Question: What about the viability, T/C [13] of the same compound?
Answer: 31.4%

Question: What about the viability, T/C [14] of the same compound?
Answer: 16.1%

Question: What about the viability, T/C [15] of the same compound?
Answer: 3.78%

Question: What about the viability, T/C [3] of the same compound?
Answer: 43%

Question: What about the viability, T/C [16] of the same compound?
Answer: 32.2%

Question: And the viability, T/C [17]?
Answer: 38.6%

Question: What about the viability, T/C [18] of the same compound?
Answer: 29.8%

Question: What about the viability, T/C [19] of the same compound?
Answer: 0.17%

Question: What about the viability, T/C [20] of the same compound?
Answer: 0.9%

Question: And the viability, T/C [4]?
Answer: 12.6%

Question: And the viability, T/C [21]?
Answer: 0.12%

Question: And the viability, T/C [22]?
Answer: 0.09%

Question: What about the viability, T/C [23] of the same compound?
Answer: 0.09%

Question: And the viability, T/C [24]?
Answer: 0.07%

Question: What about the viability, T/C [25] of the same compound?
Answer: 0.1%

Question: And the viability, T/C [5]?
Answer: 0.12%

Question: What about the viability, T/C [26] of the same compound?
Answer: 0.16%

Question: And the viability, T/C [27]?
Answer: 45.8%

Question: And the viability, T/C [28]?
Answer: 0.09%

Question: And the viability, T/C [29]?
Answer: 0.08%

Question: What about the viability, T/C [30] of the same compound?
Answer: 0.35%

Question: For `COc1cc(Nc2ncc3c(n2)-c2ccc(Cl)cc2C(c2c(F)cccc2OC)=NC3)ccc1C(=O)O` + CNCc1ccccc1-c1csc(C(C)Nc2nc(C)nc3cc(OC)c(OC)cc23)c1, which IC50 (second compound 0.1 µM) is on record?
Answer: 274 nM

Question: And the IC50 (second compound 0.316 µM)?
Answer: 143 nM

Question: And the IC50 (second compound 1 µM)?
Answer: 39.6 nM

Question: What about the IC50 (second compound 3.16 µM) of the same compound?
Answer: < 31.6 nM

Question: What about the IC50 (second compound 10 µM) of the same compound?
Answer: < 31.6 nM

Question: What about the viability, T/C [1] of the same compound?
Answer: 69.4%

Question: What about the viability, T/C [6] of the same compound?
Answer: 57.7%

Question: And the viability, T/C [7]?
Answer: 44.5%

Question: What about the viability, T/C [8] of the same compound?
Answer: 43.8%

Question: What about the viability, T/C [9] of the same compound?
Answer: 30.5%

Question: And the viability, T/C [10]?
Answer: 19.6%

Question: What about the viability, T/C [2] of the same compound?
Answer: 59.5%

Question: And the viability, T/C [11]?
Answer: 54.2%

Question: And the viability, T/C [12]?
Answer: 42.4%

Question: What about the viability, T/C [13] of the same compound?
Answer: 37%

Question: What about the viability, T/C [14] of the same compound?
Answer: 27.3%

Question: And the viability, T/C [15]?
Answer: 20.3%

Question: What about the viability, T/C [3] of the same compound?
Answer: 51.4%

Question: What about the viability, T/C [16] of the same compound?
Answer: 46.3%

Question: What about the viability, T/C [17] of the same compound?
Answer: 37.3%

Question: What about the viability, T/C [18] of the same compound?
Answer: 34.6%

Question: What about the viability, T/C [19] of the same compound?
Answer: 27.4%

Question: And the viability, T/C [20]?
Answer: 17.9%

Question: And the viability, T/C [4]?
Answer: 15.7%

Question: And the viability, T/C [21]?
Answer: 0.89%

Question: What about the viability, T/C [22] of the same compound?
Answer: 10.6%

Question: What about the viability, T/C [23] of the same compound?
Answer: 4.93%

Question: And the viability, T/C [24]?
Answer: 0.62%

Question: And the viability, T/C [25]?
Answer: 4.15%

Question: And the viability, T/C [5]?
Answer: 0.12%

Question: What about the viability, T/C [26] of the same compound?
Answer: 0.2%

Question: And the viability, T/C [27]?
Answer: 1.86%

Question: What about the viability, T/C [28] of the same compound?
Answer: 0.11%

Question: What about the viability, T/C [29] of the same compound?
Answer: 2.34%

Question: What about the viability, T/C [30] of the same compound?
Answer: 0.17%

Question: Which results are given for `COc1cc2nccc(Oc3ccc(NC(=O)C4(C(=O)Nc5ccc(F)cc5)CC4)cc3)c2cc1OC` + CNCc1ccccc1-c1csc(C(C)Nc2nc(C)nc3cc(OC)c(OC)cc23)c1?
Answer: IC50 (second compound 0.1 µM): 5360 nM; IC50 (second compound 0.316 µM): 4800 nM; IC50 (second compound 1 µM): 3670 nM; IC50 (second compound 3.16 µM): < 31.6 nM; IC50 (second compound 10 µM): < 31.6 nM; viability, T/C [1]: 92.4%; viability, T/C [6]: 94.1%; viability, T/C [7]: 102%; viability, T/C [8]: 96.3%; viability, T/C [9]: 76%; viability, T/C [10]: 19.3%; viability, T/C [2]: 90.6%; viability, T/C [11]: 82.8%; viability, T/C [12]: 81.7%; viability, T/C [13]: 86.9%; viability, T/C [14]: 69.8%; viability, T/C [15]: 15.2%; viability, T/C [3]: 74.7%; viability, T/C [16]: 79.2%; viability, T/C [17]: 85.6%; viability, T/C [18]: 80.7%; viability, T/C [19]: 57.5%; viability, T/C [20]: 0.44%; viability, T/C [4]: 0.34%; viability, T/C [21]: 0.17%; viability, T/C [22]: 0.13%; viability, T/C [23]: 0.15%; viability, T/C [24]: 0.22%; viability, T/C [25]: 0.14%; viability, T/C [5]: 0.12%; viability, T/C [26]: 0.14%; viability, T/C [27]: 0.12%; viability, T/C [28]: 0.11%; viability, T/C [29]: 0.12%; viability, T/C [30]: 0.19%
